How the values were obtained:
[1] = system: L-DOPA induced dyskinesia (LID) model rats; test: L-DOPA induced AIMs in 6-OHDA lesioned LID model rats; format: in vivo, rat
Excerpt: Animals: 80 experimentally-naïve, male, 9 weeks old Sprague-Dawley rats at body weight of 200 to 250 g arrive at the laboratory at least 1 week prior to behavioural testing. Rats were housed in groups of n=2/cage. Animals had ad libitum access to standard rodent chow and water. Animal housing and testing rooms were maintained under controlled environmental conditions and were within close proximity of each other. Animal housing rooms were on a 12-hour light-dark cycle with lights on at 6:00 AM and maintained at 70° F./21° C. (range: 68-72° F./20-22° C.) with a humidity range of 20-40%. Testing rooms were maintained at 68-72° F. with a humidity range of 20-40%. DA (dopamine)-denervating lesions were performed by unilateral injection of 6-OHDA in the ascending nigrostriatal pathway. Rats were anesthetized with pentobarbital sodium 40 mg/kg (i.p.) and positioned in a stereotactic frame. 6-OHDA was injected into the right ascending DA bundle at the following coordinates relative to bregma and dural surface: A (anterior-posterior), L (lateral), V (dorsoventral): A −1.8, L −2.0, V −8.6, tooth bar 0.0.
The neurotoxin injections were performed at a rate of 1 ul/min, and the injection cannula is left in place for an additional 2-3 min thereafter. Two weeks after surgery, contralateral full body turns were recorded over 30 min, following s.c. injection of 0.5 mg/kg of apomorphine sulfate. The animals were placed in plastic Perspex bowls (30 cm in diameter) and the rotational behavior (360° turns) is recorded by an automated rotometer for […] after the s.c. injection of 0.5 mg/kg of apomorphine sulfate. Apomorphine (0.5 mg/kg, s.c.) induced contralateral rotation in unilateral 6-OHDA lesioned rats. 73 rats with rotations ≥180/30 min, indicating >90% DA lesion in nigrostriatal pathway, were chosen as the PD model rats for chronic L-DOPA treatment.
Starting one day after the apomorphine-induced rotation test, 6-OHDA-lesioned rats were treated with daily L-DOPA (Sigma-Aldrich, Germany) (8 mg/kg plus benserazide 15 mg/kg, s.c.) for 21 days. Rats were placed individually in transparent plastic cages without bedding material and scored every 20 min following the injection of L-DOPA for the entire time course of dyskinesias (120 min). The AIMs were classified into four subtypes according to their topographic distributions such as Locomotive, Forelimb, Axial and Orolingual behaviors. The severity of each AIM subtype was assessed by using scores from 0 to 4 (1: occasional, i.e. present less than 50% of the time; 2: frequent, i.e. present more than 50% of the time; 3: continuous, but interrupted by strong sensory stimuli; 4: continuous, not interrupted by strong sensory stimuli). In this study, rats with an AIMs≥28 were considered highly dyskinetic, while rats with an AIMs<28 either low or none-dyskinetic.
After chronic L-DOPA treatment on PD rats for 21 days, 42 LID model rats (348 g˜501 g, 15 weeks old) were successfully created with the criteria of total AIM scores (Lo+Li+AX+OI)≥28 points.
AIMs ratings were performed by an investigator who was kept unaware of the pharmacological treatment administered to each rat (experimentally blinded). In order to quantify the severity of the AIMs, rats were observed individually in their standard cages every 20th minute at 20-180 min after an injection of I-DOPA. The AIM's were classified into four subtypes:
Each of the four subtypes are scored on a severity scale from 0 to 4, where 0=absent, 1=present during less than half of the observation time, 2=present for more than half of the observation time, 3=present all the time but suppressible by external stimuli, and 4=present all the time and not suppressible by external stimuli. Axial, limb and orolingual AIMs are found to be modulated in a similar way by all the tested substances.
Rats were tested for AIMs using the sum of locomotive (LO) oraxial (AX), limb (LI), and orolingual (OL) AIM scores per testing session for statistical analyses. […]

[2] = target: human recombinant dopamine D2 receptor (Homo sapiens, UniProt P14416); conditions: read-out: D2 affinity Ki ± SEM; cited from earlier work
Chain of human recombinant dopamine D2 receptor (P14416 whole entry): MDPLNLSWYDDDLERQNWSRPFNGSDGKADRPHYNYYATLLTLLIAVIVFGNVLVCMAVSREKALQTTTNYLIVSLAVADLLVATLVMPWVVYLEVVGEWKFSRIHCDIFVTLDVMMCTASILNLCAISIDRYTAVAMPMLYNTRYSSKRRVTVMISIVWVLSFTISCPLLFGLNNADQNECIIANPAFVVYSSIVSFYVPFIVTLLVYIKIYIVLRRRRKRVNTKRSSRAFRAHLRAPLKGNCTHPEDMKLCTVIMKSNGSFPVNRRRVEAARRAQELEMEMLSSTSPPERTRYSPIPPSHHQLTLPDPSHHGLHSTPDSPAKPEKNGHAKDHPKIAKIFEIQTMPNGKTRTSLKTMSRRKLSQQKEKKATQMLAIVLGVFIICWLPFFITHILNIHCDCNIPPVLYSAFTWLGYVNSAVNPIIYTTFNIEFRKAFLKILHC

PD model rats = test: Stepping test (adjusting steps) in PD model rats; format: in vivo, rat; conditions: 6-OH-Busp 3 mg/kg, sc added to L-DOPA 10 mg/kg
Protocol: The stepping test (Schallert et al., 1992) was performed as described by Kirik et al., 2001 with little modifications. Briefly, the rat was held by the experimenter fixing its hindlimbs with one hand and the forelimb not to be monitored with the other, while the unrestrained forepaw was touching the table. The number of adjusting steps was counted, while the rat was moved sideways along the table surface (90 cm in 5 s), in the forehand and backhand direction, for both forelimbs, and the average of the steps in the two directions is considered.
30 male PD model rats were used for adjusting steps test with the following groups: • 1. Vehicle 1+Vehicle 2 (n=7) • 2. Vehicle 1+L-DOPA (10 mg/kg, sc) (n=7) • 3. 6-OH-Busp (3 mg/kg, sc)+Vehicle 2 (n=8) • 4. 6-OH-Busp (3 mg/kg, sc)+L-DOPA (10 mg/kg, sc)
The PD rats were handled for 3 consecutive days. Vehicle 1 or 6-OH-Busp will s.c. dosed 61 min before adjusting steps test. Vehicle 2 or L-DOPA/Benserazide dosed 60 min before adjusting steps test. On testing day, the rats were held by both hind limbs and the untested forepaw. The test forepaw was placed on a flat surface and dragged in the forehand direction for 90 cm distance over 5 s. The number of adjusting steps was counted for both paws in the backhand and forehand directions of movement. […] Data were analyzed and graphed by Graph Pad Prism 6.

[3] = target: T1, human recombinant dopamine D4 receptor (Homo sapiens, UniProt P21917); conditions: read-out: D4 affinity Ki ± SEM; cited from earlier work
T1 sequence (P21917 1-419): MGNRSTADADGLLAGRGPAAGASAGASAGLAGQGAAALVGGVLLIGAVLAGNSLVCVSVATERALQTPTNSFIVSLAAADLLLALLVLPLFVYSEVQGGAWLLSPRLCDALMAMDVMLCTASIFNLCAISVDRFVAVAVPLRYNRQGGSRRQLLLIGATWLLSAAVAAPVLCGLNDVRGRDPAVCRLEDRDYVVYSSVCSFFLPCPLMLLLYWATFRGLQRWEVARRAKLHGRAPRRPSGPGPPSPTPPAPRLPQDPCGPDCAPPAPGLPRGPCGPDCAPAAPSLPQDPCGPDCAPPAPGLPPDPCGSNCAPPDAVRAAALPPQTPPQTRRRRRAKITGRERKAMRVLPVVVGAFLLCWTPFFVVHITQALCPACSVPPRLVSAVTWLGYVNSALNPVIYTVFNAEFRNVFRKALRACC

## O=C1CC2(CCCC2)C(O)C(=O)N1CCCCN1CCN(c2ncccn2)CC1 (racemic) [6-OH-Busp]
[1]; Example XII, 0.3, 1 and 3 mg/kg s.c.
  total AIMs sum: dose-dependently decreased
[1]; Example XII, 0.3, 1 and 3 mg/kg s.c., 30 to 190 min after L-DOPA injection
  AIMs of LID rats at time points: dose-dependently decreased
[1]; Example XII, buspirone 1 mg/kg s.c., 6-OH-Busp 0.3, 1 and 3 mg/kg s.c., vs vehicle
  AUC of total AIMs from 10 min to 190 min: dose-dependently decreased
[1]; Example XIII, 1 mg/kg s.c., 50 min and 70 min after L-DOPA injection
  AIMs of LID rats at time points: did not significantly decrease
[1]; Example XIII, 3 mg/kg s.c., 50 to 190 min
  AIMs of LID rats at time points: significantly decreased
[1]; Example XIV, 1 mg/kg s.c. alone, 90 min and 110 min after L-DOPA injection
  AIMs of LID rats at time points: did not have significant effects
[2]
  Ki: 5390 ± 425 nM
PD model rats
  effect on adjusting steps of adding 6-OH-Busp to L-DOPA: no significant different effect
[3]
  Ki: 40.4 ± 17.5 nM
